Experimental data reported in PMC10877565, “Iso-ADP-Ribose Fluorescence Polarization Probe for the Screening of RNF146 WWE Domain Inhibitors” (ACS Chemical Biology, 2024).
“And” between values parts separate entries of the source, which are not always exact repeats. Equal values may be shown once. “Also recorded” adds a separate entry of the source. Read-outs that look alike come from different tables or passages of the source.

Key:
RNF146 WWE domain [1] = target: T1, RNF146 WWE domain (Homo sapiens, UniProt Q9NTX7); experiment: Competitive FP-based binding assay with TAMRA-isoADPr tracer; conditions: for IC50: TAMRA-isoADPr 20 nM, RNF146 WWE 100 nM; for Hillslope: IC50 curve of fragment hits
T1 construct: PARP11, PARP14, TiPARP, DTX2, and RNF146 WWE domain plasmids were either cloned or purchased from Twist Biosciences; His tag (N); made in house; host or cells: E. coli BL21(DE3), pET28a
T1 sequence (Q9NTX7 92-168 limits assumed): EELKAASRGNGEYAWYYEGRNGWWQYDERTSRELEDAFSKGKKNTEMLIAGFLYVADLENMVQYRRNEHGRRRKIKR

WWE domains = experiment: FP titration of different WWE domains using TAMRA-ADPr; type: binding; conditions: Figure S3, n = 3
Excerpt: (§1) We then screened the tracer TAMRA-isoADPr against WWE domains of some other proteins, including PARP11, PARP14, HUWE1, TiPARP, and DTX2, under the same conditions. […] To check the folding of purified WWE domains, we obtained the circular dichroism (CD) spectra for the purified WWE domains, and the results indicated proper folding of all purified proteins (Figure S5). […] The isoADPr binding pocket of RNF146 WWE is special in that the entire pocket is largely positively charged with multiple arginine and lysine residues to interact with both phosphate groups of isoADPr, while this feature is missing in other WWE domains containing proteins (Figure S2). Indeed, RNF146 WWE is the only reported high-affinity binder of the isoADPr monomer, so it is likely that other WWE domains tested are simply too weak binders to show any significant binding at the concentrations tested.
Figure S3. FP titration of different WWE domains using TA M R A -ADPr (n= 3). Data of SA RS-C oV 2 N sp3
Macro (black) is shown here as comparison.
F i g u re S 4. Attempted IC50 measurement and chemical structure of Z1203162033. […]

TiPARP WWE = target: T2, TiPARP WWE (Homo sapiens, UniProt Q7Z3E1); experiment: FP titration of WWE domains with TAMRA-isoADPr; type: binding; conditions: same conditions as RNF146 WWE titration
T2 construct: PARP11, PARP14, TiPARP, DTX2, and RNF146 WWE domain plasmids were either cloned or purchased from Twist Biosciences; made in house; host or cells: E. coli BL21(DE3), pET28a
T2 sequence (Q7Z3E1 332-410 limits assumed): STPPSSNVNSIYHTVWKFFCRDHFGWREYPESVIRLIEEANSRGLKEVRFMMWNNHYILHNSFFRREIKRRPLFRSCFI
Excerpt: as §1
(§2) The purified WWE domain proteins were 3-fold serially diluted from 20 μM to ∼5 nM in the assay buffer (25 mM Tris pH 8.0, 150 mM NaCl, and 0.01% Tween-20). In the assay, 50 μL of the protein solution at each concentration was transferred to a 96-well black plate (Corning, #3915), followed by the addition of 50 μL of TAMRA-isoADPr (40 nM, 2X) in the assay buffer to reach a final volume of 100 μL. The plate was allowed to stand at RT for 30 min and then scanned on Cytation5 equipped with an FP filter cube (Agilent, part number: 8040562, Ex: 530/25, Em: 590/35). mP values were calculated using the equation below [drawing 1] where F// and F⊥ are the parallel and perpendicular fluorescence intensities, respectively, and G is the grating factor of the instrument, which was calibrated so that 20 nM 5-TAMRA has an mP shift of 50. The obtained mP data were fitted in the one-site-specific binding model implemented in GraphPad Prism 9.4.1 (GraphPad Software, Inc.) to give the Kd value using the equation below [drawing 2]

DTX2 WWE = target: T3, DTX2 WWE (Homo sapiens, UniProt Q86UW9); experiment: FP titration of WWE domains with TAMRA-isoADPr; type: binding; conditions: same conditions as RNF146 WWE titration
T3 sequence (Q86UW9 98-174 limits assumed): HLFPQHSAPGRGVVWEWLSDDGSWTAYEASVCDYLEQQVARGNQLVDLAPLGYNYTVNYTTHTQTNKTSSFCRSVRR
Excerpt: as §1, §2

PARP11 WWE = target: T4, PARP11 WWE (Homo sapiens, UniProt Q9NR21); experiment: FP titration of WWE domains with TAMRA-isoADPr; type: binding; conditions: same conditions as RNF146 WWE titration
T4 construct: PARP11, PARP14, TiPARP, DTX2, and RNF146 WWE domain plasmids were either cloned or purchased from Twist Biosciences; made in house; host or cells: E. coli BL21(DE3), pET28a
T4 sequence (Q9NR21 22-106 limits assumed): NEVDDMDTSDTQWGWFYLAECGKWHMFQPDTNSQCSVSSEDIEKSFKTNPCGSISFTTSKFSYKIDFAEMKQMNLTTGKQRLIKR
Excerpt: as §1, §2

HUWE1 WWE [2] = target: T5, HUWE1 WWE (Homo sapiens, UniProt Q7Z6Z7); experiment: FP titration of WWE domains with TAMRA-isoADPr; type: binding; conditions: same conditions as RNF146 WWE titration
T5 construct: The HUWE1 WWE domain was purified as previously reported; made in house
T5 sequence (Q7Z6Z7 1603-1680 limits assumed): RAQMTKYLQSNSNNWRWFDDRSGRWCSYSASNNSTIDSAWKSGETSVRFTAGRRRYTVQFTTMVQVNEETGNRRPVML
Excerpt: as §1, §2

PARP14 WWE = target: T6, PARP14 WWE (Homo sapiens, UniProt Q460N5); experiment: FP titration of WWE domains with TAMRA-isoADPr; type: binding; conditions: same conditions as RNF146 WWE titration
T6 construct: PARP11, PARP14, TiPARP, DTX2, and RNF146 WWE domain plasmids were either cloned or purchased from Twist Biosciences; made in house; host or cells: E. coli BL21(DE3), pET28a
T6 sequence (Q460N5 1523-1601 limits assumed): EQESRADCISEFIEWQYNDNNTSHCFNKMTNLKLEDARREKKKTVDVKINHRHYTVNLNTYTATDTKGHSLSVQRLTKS
Excerpt: as §1, §2

RNF146 WWE domain [3] = target: T1, RNF146 WWE domain; experiment: FP protein titration of tracer with RNF146 WWE; type: binding; conditions: tracer 20 nM, Tris buffer pH 8.0
Procedure: Having obtained the tracer molecule TAMRA-isoADPr, we then examined its binding affinity by FP protein titration experiments, where a fixed concentration of the tracer (20 nM) was titrated with increasing concentrations of RNF146 WWE protein in Tris buffer (pH 8.0), yielding a binding curve with an increasing mP shift (ΔmP) until a plateau was observed.
as §2

RNF146 WWE [4] = target: T7, RNF146 WWE (Homo sapiens, UniProt Q9NTX7); experiment: Fragment library screening by competitive FP, 384-well; type: binding; conditions: 100 μM, 1% DMSO
T7 construct: PARP11, PARP14, TiPARP, DTX2, and RNF146 WWE domain plasmids were either cloned or purchased from Twist Biosciences; His tag (N); made in house; host or cells: E. coli BL21(DE3), pET28a
T7 sequence (Q9NTX7 92-168 limits assumed): T1 sequence (Q9NTX7 92-168 limits assumed)
Procedure: To test the performance of the established FP assay in high-throughput formats, we conducted a pilot screen where isoADPr was used as the positive control, and Enamine Essential Fragments Library, which contains 320 fragments, was used as a test case for potential inhibitors. The test library was screened at 100 μM in 1% DMSO under the established conditions in duplicates in two 384-well plates (Figure 4A). In each plate, four controls were used: buffer control, tracer control, negative control, and positive control. Buffer control allowed the detection of background fluorescence, while tracer and negative controls gave mP values of the free tracer and maximally bound tracer, to which inhibition rates of fragment candidates were normalized. […] From these control wells, different assay parameters could be calculated. One important FP assay parameter is the assay window (ΔmP), which is calculated as the difference between the mP value recorded for the bound tracer (i.e., negative control) and the mP value recorded for the free tracer (i.e., tracer control). […] Another parameter general to all HTS assays is the screening window coefficient (Z′ factor). A Z′ factor value between 0.5 and 1 is suitable for HTS.[26] […] Moreover, the coefficients of variation (CV) of both negative and positive control wells were low.
Using epMotion 96 (Eppendorf), 49.5 μL of the assay solution (100 nM RNF146 WWE and 20 nM TAMRA-isoADPr) or control solution (tracer-only, buffer-only, and positive control with additional 100 μM isoADPr) was transferred from a 96-well mother plate to a 384-well black plate (Corning, #3575). […] For each fragment and positive and negative control well, the relative percent binding of the tracer was calculated as described above. Z’ factor was calculated with the following equation [drawing 5] where σP and σN are the standard deviations of ΔmP values of positive and negative control wells, while μP and μN are the mean ΔmP values of positive and negative control wells.

RNF146 WWE [5] = target: T7, RNF146 WWE; experiment: Biolayer interferometry, immobilized biotin-isoADPr with RNF146 WWE; type: binding; conditions: BLI
Excerpt: To further validate that our probe indeed can bind to RNF146 WWE, we sought to measure the Kd value of TAMRA-isoADPr toward RNF146 WWE through biolayer interferometry (BLI). A typical BLI experiment relies on an antibody-coated biosensor tip that can capture the protein of interest, and it was then dipped into solutions containing potential interacting molecules (here, referred to as the analyte).[20] The interaction between the protein and the analyte can be measured in real time through monitoring the reflected light pattern upon complex formation on the biosensor surface, giving useful kinetics information, including kon, koff, and Kd. […] Therefore, we synthesized a biotin-labeled isoADPr compound (11, Figure 3A) from 3′-azido-isoADPr, which is structurally analogous to TAMRA-isoADPr. Biotin-isoADPr was immobilized onto SA biosensors that were then dipped into RNF146 WWE solutions of varying concentrations in multiple association–dissociation cycles (Figure S1B). […] The BLI experiment further supports that our tracer design strategy works for RNF146 WWE.
The binding of biotin-isoADPr to the RNF146 WWE was monitored and measured on an Octet RH16 biolayer interferometer. Three replicate streptavidin biosensor tips (SA) were loaded with 1 μM biotin-isoADPr in the kinetics buffer (PBS with 0.02% Tween-20 and 0.1% BSA) for 300 s. After a 300 s baseline step, the loaded sensor tips were moved to sample wells containing RNF146 WWE protein at 0, 12, 49, 187, 750, 3000, 9000, and 18000 nM in the kinetics buffer sequentially in multiple cycles, with each cycle consisting a 300 s association step in the sample well and a 300 s dissociation step in the buffer well. The volume of each well was 200 μL. A reference biosensor without biotin-isoADPr loading was used to exclude the possibilities of nonspecific binding, and reference wells without RNF146 WWE protein were used for blank subtraction. Data were processed and curves were fitted with a 1:1 best-fit model in Octet BLI Analysis software.

HUWE1 WWE [6] = target: T5, HUWE1 WWE; conditions: reported; cited from earlier work
RNF146 WWE [7] = target: T7, RNF146 WWE; conditions: isothermal titration calorimetry; read-out: reported Kd; cited from earlier work

[N-]=[N+]=N[C@H]1[C@@H](O[C@H]2O[C@H](COP(=O)(O)O)[C@@H](O)[C@H]2O)[C@H](n2cnc3c(N)ncnc32)O[C@@H]1COP(=O)(O)O [3′-azido-isoADPr]
fold more potent than isoADPr (RNF146 WWE domain [1]; IC50 compared with isoADPr): 2 fold | IC50 (RNF146 WWE domain [1]; 96-well): 0.273 µM

CN(C)c1ccc2c(c1)Oc1cc(N(C)C)ccc1C21OC(=O)c2cc(C(=O)NCCCCCCNC(=O)CCc3cn([C@H]4O[C@H](COP(=O)(O)OP(=O)(O)OC[C@H]5O[C@@H](n6cnc7c(N)ncnc76)[C@H](O)[C@@H]5O)[C@@H](O)[C@H]4O)nn3)ccc21 [TAMRA-ADPr]
binding of TAMRA-ADPr (WWE domains): does not bind

CN(C)c1ccc2c(c1)Oc1cc(N(C)C)ccc1C21OC(=O)c2cc(C(=O)NCCCCCCNC(=O)CCc3cn([C@H]4[C@@H](O[C@H]5O[C@H](COP(=O)(O)O)[C@@H](O)[C@H]5O)[C@H](n5cnc6c(N)ncnc65)O[C@@H]4COP(=O)(O)O)nn3)ccc21 [TAMRA-isoADPr]
binding of tracer (TiPARP WWE): no binding; also recorded: none of these WWE domains could bind the tracer | binding of tracer (DTX2 WWE): no binding; also recorded: none of these WWE domains could bind the tracer | binding of tracer (PARP11 WWE): no binding; also recorded: none of these WWE domains could bind the tracer | binding of tracer (HUWE1 WWE [2]): no binding; also recorded: none of these WWE domains could bind the tracer | binding of tracer (PARP14 WWE): no binding; also recorded: none of these WWE domains could bind the tracer | Kd (RNF146 WWE domain [3]): 0.0452 µM

COc1cc(CC(=O)O)ccc1O [Z1203162033]
percent binding of tracer (RNF146 WWE [4]; AVERAGE of two plates): 43.4% | percent binding of tracer (RNF146 WWE [4]; PLATE1): 43.6% | percent binding of tracer (RNF146 WWE [4]; PLATE2): 43.3% | binding strength in attempted IC50 measurement (RNF146 WWE domain [1]; Figure S4): much weaker binder

Nc1ncnc2c1ncn2[C@@H]1O[C@H](COP(=O)(O)O)[C@@H](n2cc(COCCOCCOCCOCCNC(=O)CCCC[C@@H]3SC[C@@H]4NC(=O)N[C@@H]43)nn2)[C@H]1O[C@H]1O[C@H](COP(=O)(O)O)[C@@H](O)[C@H]1O [biotin-isoADPr]
Kd (RNF146 WWE [5]; SA biosensor, 1:1 fit): 0.644 µM | kon (RNF146 WWE [5]; mean ± error, n = 3): 65700 M⁻¹ s⁻¹ | koff (RNF146 WWE [5]; mean ± error, n = 3, read-out: kdis): 0.0423 s⁻¹

O=C(O)c1cc2occc2[nH]1 [compound 12]
Hillslope (RNF146 WWE domain [1]): -1.134 | IC50 (RNF146 WWE domain [1]; fragment hits): 86.2 µM and 86 µM

O=C(O)c1sccc1-n1cccc1 [compound 13]
Hillslope (RNF146 WWE domain [1]): -1.834 | IC50 (RNF146 WWE domain [1]; fragment hits): 39.5 µM and 40 µM

Nc1ncnc2c1ncn2[C@@H]1O[C@H](COP(=O)(O)O)[C@@H](O)[C@H]1O[C@H]1O[C@H](COP(=O)(O)O)[C@@H](O)[C@H]1O [isoADPr, iso-ADP-ribose]
IC50 (RNF146 WWE domain [1]; 96-well): 0.623 µM | Kd (HUWE1 WWE [6]): 13 µM | Kd (RNF146 WWE [7]): 0.37 µM
